From paper PMC9234961 (Journal of Medicinal Chemistry, 2022) come the findings set out here.

The structures appear in SMILES notation. A value given as a limit tells only on which side of the number the result lay.

One data set is described as follows: in vitro. The class given is in vitro ADME. As to conditions: pH 7.4, 10 µM, 16 h at 30 °C.
The next data set addresses T1, AR (Homo sapiens, UniProt P10275).
T1 sequence (P10275 1-920): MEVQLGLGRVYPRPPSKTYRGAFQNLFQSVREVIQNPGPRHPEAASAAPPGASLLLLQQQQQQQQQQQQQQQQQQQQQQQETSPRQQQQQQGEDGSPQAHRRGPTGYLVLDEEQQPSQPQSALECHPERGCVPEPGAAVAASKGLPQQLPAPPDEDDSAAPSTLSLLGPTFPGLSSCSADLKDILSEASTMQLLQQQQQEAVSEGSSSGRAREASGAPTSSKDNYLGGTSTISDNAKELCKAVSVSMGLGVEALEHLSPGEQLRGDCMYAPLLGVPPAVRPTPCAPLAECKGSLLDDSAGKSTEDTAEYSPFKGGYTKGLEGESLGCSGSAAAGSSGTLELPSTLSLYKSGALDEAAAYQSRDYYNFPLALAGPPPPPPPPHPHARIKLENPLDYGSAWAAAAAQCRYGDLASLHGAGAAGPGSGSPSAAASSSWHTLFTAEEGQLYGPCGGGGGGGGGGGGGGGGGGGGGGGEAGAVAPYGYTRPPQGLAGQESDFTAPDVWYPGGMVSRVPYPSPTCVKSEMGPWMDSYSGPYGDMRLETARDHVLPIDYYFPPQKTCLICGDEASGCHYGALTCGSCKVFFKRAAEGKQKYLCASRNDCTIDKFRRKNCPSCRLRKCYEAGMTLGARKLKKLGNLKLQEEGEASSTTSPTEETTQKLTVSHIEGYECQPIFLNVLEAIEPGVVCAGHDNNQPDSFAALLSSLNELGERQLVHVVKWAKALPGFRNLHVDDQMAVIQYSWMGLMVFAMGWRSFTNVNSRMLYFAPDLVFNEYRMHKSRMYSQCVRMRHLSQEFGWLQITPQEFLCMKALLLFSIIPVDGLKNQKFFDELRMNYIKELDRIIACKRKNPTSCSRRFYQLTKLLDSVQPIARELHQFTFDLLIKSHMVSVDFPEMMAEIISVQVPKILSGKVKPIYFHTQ
Briefly: SAFETYScan NHR Nuclear Translocation, Antagonist. It is filed as cell-based. The source says:
(§1) Supplement jm1c02175_si_002.xlsx, sheet "SAFETYScan" | column: RC50 (uM); Max Response

In a further data set the target is T2, HTR1A (Homo sapiens, UniProt P08908).
T2 construct: expressed in transfected cells
T2 sequence (P08908 1-422): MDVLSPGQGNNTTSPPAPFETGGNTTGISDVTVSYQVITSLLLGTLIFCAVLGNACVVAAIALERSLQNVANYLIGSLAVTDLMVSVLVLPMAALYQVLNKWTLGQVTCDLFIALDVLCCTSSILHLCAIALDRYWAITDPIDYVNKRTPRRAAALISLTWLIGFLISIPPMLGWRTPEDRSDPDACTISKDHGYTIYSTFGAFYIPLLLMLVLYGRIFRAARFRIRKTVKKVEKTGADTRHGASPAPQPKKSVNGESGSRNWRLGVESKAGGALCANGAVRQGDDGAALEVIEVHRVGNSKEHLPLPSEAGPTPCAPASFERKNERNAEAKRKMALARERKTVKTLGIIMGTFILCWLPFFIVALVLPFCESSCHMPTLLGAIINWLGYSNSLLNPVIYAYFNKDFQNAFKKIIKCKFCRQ
Briefly: SAFETYScan GPCR cAMP, Agonist. The class given is cell-based.
Text: as §1

The next data set concerns the target OPRK1 (Homo sapiens, UniProt P41145). Briefly: SAFETYScan GPCR cAMP, Agonist. It is filed as cell-based.
Text: as §1

For the next data set, the target named is T3, CHRM2 (Homo sapiens, UniProt P08172).
T3 construct: expressed in transfected cells
T3 sequence (P08172 1-466): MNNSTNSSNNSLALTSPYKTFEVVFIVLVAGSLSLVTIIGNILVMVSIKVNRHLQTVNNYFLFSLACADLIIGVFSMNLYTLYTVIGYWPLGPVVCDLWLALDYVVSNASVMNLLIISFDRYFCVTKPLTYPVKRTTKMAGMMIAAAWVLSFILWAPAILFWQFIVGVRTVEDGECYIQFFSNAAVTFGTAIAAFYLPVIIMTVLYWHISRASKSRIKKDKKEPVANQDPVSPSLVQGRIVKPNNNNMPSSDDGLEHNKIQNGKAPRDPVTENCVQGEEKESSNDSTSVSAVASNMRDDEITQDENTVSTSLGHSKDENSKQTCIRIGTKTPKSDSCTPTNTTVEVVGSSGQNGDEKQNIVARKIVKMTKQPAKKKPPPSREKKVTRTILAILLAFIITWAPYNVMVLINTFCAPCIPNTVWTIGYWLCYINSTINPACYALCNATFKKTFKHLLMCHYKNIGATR
Briefly: SAFETYScan GPCR cAMP, Agonist. It is filed as cell-based.
Text: as §1

The next data set has as its target T4, HRH2 (Homo sapiens, UniProt P25021).
T4 construct: expressed in transfected cells
Briefly: SAFETYScan GPCR cAMP, Agonist. The class given is cell-based.
Text: as §1

Another data set has as its target T5, ADRA2A (Homo sapiens, UniProt P08913).
T5 construct: expressed in transfected cells
T5 sequence (P08913 1-465): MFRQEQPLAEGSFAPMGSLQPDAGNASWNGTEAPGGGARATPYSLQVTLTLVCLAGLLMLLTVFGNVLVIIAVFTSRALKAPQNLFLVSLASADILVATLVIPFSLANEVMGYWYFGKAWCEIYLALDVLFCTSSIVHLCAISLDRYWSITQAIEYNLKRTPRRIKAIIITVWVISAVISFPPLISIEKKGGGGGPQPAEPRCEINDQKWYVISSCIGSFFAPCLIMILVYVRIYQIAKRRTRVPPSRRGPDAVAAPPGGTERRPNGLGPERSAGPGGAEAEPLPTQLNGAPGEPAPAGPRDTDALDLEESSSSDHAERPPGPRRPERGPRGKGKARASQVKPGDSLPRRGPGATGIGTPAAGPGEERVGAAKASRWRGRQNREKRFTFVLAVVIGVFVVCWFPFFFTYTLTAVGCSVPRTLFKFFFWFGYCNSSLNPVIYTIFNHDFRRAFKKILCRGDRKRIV
Briefly: SAFETYScan GPCR cAMP, Agonist. The class given is cell-based.
Text: as §1

The target of a further data set is T6, HTR1B (Homo sapiens, UniProt P28222).
T6 construct: expressed in transfected cells
T6 sequence (P28222 whole entry): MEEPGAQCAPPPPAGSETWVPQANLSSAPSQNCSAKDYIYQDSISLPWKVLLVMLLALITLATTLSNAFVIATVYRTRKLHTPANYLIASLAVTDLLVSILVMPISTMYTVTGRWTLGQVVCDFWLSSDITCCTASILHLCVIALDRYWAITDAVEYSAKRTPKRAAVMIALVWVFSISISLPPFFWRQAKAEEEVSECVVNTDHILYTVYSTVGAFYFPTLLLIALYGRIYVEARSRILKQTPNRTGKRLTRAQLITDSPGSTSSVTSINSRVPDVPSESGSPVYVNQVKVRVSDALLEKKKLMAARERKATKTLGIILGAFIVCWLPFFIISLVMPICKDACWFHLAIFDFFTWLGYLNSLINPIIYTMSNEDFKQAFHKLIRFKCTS
Briefly: SAFETYScan GPCR cAMP, Agonist. It is filed as cell-based.
Text: as §1

For another data set, the target named is T7, DRD2S (Homo sapiens, UniProt P14416).
T7 construct: expressed in transfected cells
T7 sequence (P14416 1-414 isoform P14416-2): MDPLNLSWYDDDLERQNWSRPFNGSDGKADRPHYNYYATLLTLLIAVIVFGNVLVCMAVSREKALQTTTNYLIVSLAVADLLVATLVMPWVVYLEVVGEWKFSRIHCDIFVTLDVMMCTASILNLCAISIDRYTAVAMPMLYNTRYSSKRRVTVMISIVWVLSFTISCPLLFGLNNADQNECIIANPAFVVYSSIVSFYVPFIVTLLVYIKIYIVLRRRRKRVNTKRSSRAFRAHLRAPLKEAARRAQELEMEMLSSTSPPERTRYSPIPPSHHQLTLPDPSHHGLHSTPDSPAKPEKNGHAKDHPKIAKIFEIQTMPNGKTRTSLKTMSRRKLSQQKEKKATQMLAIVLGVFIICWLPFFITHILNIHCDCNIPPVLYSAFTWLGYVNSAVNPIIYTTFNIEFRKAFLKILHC
Briefly: SAFETYScan GPCR cAMP, Agonist. The class given is cell-based.
Text: as §1

For data set [1], the target named is BCL6 in OCI-Ly1 DLBCL xenograft (Homo sapiens, UniProt P41182). As to conditions: single dose 50 mg/kg po.
Protocol: weighed and dosing volumes adjusted accordingly.
7.3.2 Preparation of OCI-Ly1 xenograft model in mouse
Twenty days post injection 24 tumour-bearing mice (between 0.4 and 0.6 cm3) were selected for the study
Mice were then grouped n=3 for the following time points: 12, 16 & 24 hours
Compounds and vehicle were administered po (formulated as described in Supplementary experimental
single treatment of vehicle.
Blood (~1 mL) was taken from anaesthetized mice, via intracardiac puncture, using a 27 gauge needle and
a syringe pre-coated with heparin (200 Units/mL), The heparinized blood was microcentrifuged for 2
minutes and ~200 uL of plasma was aspirated to a labelled tube, frozen on dry-ice and dedicated to
pharmacokinetic analysis (PK). Each tumour was excised, divided into two halves, weighed and then snap
frozen in liquid nitrogen, dedicating one half to PK analysis and the other half to pharmacodynamic analysis (PD). All frozen material was permanently stored in a -80°C freezer.
7.3.6 Tumour lysis and Wes method
Tumours were lysed in lysis buffer (50 mM Tris-HCl, pH 7.4, 150 mM NaCl, 1% Triton X-100 (v/v), 1 mM PMSF, 1 mM activated sodium vanandate, 1 mM EDTA, phosphatase inhibitors 2 and 3 (1:50m dilution) and protease cocktail (1:100 dilution)) using reinforced homogenizing tubes containing metal beads using a Precellys 24 with cryolys cooling at 6000 rpm, 2 × 20 s (Stretton Scientific). Lysates were incubated on ice for 15 minutes, spun at 14000 rpm at 4 °C for 10 minutes and supernatants collected and aliquoted.
Samples were stored at -80 °C until use. Protein concentration was determined by diluting 1:10 with lysis buffer and measuring on Direct Detect® spectrometer according to manufacturer’s instructions.
according to manufacturer’s instructions (ProteinSimple) with multiplexing BCL6 (CST14895 at 1:150
Data was analysed using Compass for SW software. BCL6 data was normalised to GAPDH and transferred to GraphPad Prism 7.

OPRK1, sequence (P41145 whole entry, species assumed): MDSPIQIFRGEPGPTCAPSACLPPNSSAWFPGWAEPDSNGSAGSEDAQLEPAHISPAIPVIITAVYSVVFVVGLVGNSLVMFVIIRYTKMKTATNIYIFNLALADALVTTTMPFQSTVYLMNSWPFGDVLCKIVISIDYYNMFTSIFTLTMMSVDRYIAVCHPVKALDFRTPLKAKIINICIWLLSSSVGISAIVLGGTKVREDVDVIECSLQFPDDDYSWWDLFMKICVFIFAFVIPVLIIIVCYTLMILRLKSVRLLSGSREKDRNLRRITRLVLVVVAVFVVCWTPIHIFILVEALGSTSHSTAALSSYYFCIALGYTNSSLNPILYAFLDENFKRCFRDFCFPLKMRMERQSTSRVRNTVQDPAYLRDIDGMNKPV
T4 sequence (P25021 whole entry): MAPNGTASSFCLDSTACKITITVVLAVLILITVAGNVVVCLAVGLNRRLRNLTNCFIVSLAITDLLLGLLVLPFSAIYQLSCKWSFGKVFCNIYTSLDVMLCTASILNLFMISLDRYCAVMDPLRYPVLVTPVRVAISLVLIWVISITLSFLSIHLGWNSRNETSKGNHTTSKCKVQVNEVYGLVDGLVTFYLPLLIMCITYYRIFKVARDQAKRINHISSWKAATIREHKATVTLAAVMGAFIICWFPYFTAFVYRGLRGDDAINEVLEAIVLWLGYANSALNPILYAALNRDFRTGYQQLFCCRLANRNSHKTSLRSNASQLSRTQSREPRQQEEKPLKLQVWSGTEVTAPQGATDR

As usually defined, the IC50 is the concentration that gives 50% inhibition. A word on the EC50: it is the concentration giving half of the maximal effect. Take `C[C@H]1C[C@@H](O)CN(c2ncc(Cl)c(Nc3ccc4c(c3)c3c(c(=O)n4C)OCC(F)(F)[C@H](C4CC4)N3)n2)C1` [12a CCT373566, (S)-10-((5-Chloro-2-((3R,5S)-3-hydroxy-5-methylpiperidin-1-yl)pyrimidin-4-yl)amino)-2-cyclopropyl-3,3-difluoro-7-methyl-1,2,3,4-tetrahydro-[1,4]oxazepino[2,3-c]quinolin-6(7H)-one]: the “PAMPA (pH 7.4)” value in “in vitro” turned out to be 24 ×10–6 cm s–1. The Emax at AR (read-out: Max Response) came out at 0%; at HTR1A (read-out: Max Response), 12.5%; on OPRK1 (read-out: Max Response) it was 37.1%; at CHRM2 (read-out: Max Response) it was 15%; on HRH2 (read-out: Max Response), 0%; on ADRA2A (read-out: Max Response), 33.6%. Besides, the results for the Emax on HTR1B (read-out: Max Response) and on DRD2S (read-out: Max Response) were 21.5% and 1.64%, respectively. For the same molecule, the IC50 at AR (read-out: RC50 (IC50)) was > 10 µM. In addition, the EC50 at HTR1A (read-out: RC50 (EC50)), on OPRK1 (read-out: RC50 (EC50)), at CHRM2 (read-out: RC50 (EC50)), on HRH2 (read-out: RC50 (EC50)), at ADRA2A (read-out: RC50 (EC50)) and on HTR1B (read-out: RC50 (EC50)) was > 10 µM each time. Moreover, the EC50 at DRD2S (read-out: RC50 (EC50)) was > 10 µM. The adverse events result in data set [1] (OCI-Ly1 xenograft SCID mice) was “No visible adverse events were observed”. Also, the “tumor concentrations versus plasma concentrations” value in data set [1] (12, 16, 24 h) is listed as “lower than plasma concentrations at all time points”. Further, the “BCL6 levels in tumor” value in data set [1] (12, 16 and 24 h after dosing) was “significantly decreased at all time points”.
